Results as given in patent US8273759B2, “Fungicide heterocyclyl-pyrimidinyl-amino derivatives” (Bayer Cropscience AG, priority 2007, dated 2012).

Tested on: Pyricularia grisea
Assay: not given
Type: in vivo
Settings: 500 ppm; rice plants sprayed 24 hours before contamination; grading 6 days after contamination

Compound	protection (good, at least 70%, or total), % of efficacy
CCC(COC)Nc1cc(-c2ccnc(Nc3ccnc(Cl)c3)n2)ccn1 (stereo not shown) [Compound 9, N-(2-chloropyridin-4-yl)-4-(2-{[1-(methoxymethyl)propyl]amino}pyridin-4-yl)pyrimidin-2-amine]	at least 70%

Tested on: not listed separately
Assay: log P by reversed-phase HPLC (EEC Directive 79/831 Annex V.A8)
Type: physicochemical
Settings: reversed-phase C 18, 40° C., 0.1% aqueous formic acid and acetonitrile gradient
Procedure: Temperature: 40° C.; Mobile phases: 0.1% aqueous formic acid and acetonitrile; linear gradient from 10% acetonitrile to 90% acetonitrile.

Compound	log PHCOOH
COc1ccc(Nc2nccc(-c3ccnc(N(C)C)c3)n2)cn1 [Compound 1]	1.24
CCC(CO)Nc1cc(-c2ccnc(Nc3ccc(OC)nc3)n2)ccn1 (stereo not shown) [Compound 2]	1.35
c1cc(Nc2nccc(-c3ccnc(NC4CCC4)c3)n2)nc(NC2CCC2)c1 [Compound 3]	1.12
c1cc(Nc2nccc(-c3ccnc(NC4CCCCC4)c3)n2)nc(NC2CCCCC2)c1 [Compound 4]	1.70
c1cc(Nc2nccc(-c3ccnc(NCC4CC4)c3)n2)cc(NCC2CC2)n1 [Compound 5]	0.97
COCCCNc1cc(-c2ccnc(Nc3cccc(NCCCOC)n3)n2)ccn1 [Compound 6]	0.83
c1cc(NCC2CCCO2)nc(Nc2nccc(-c3ccnc(NCC4CCCO4)c3)n2)c1 (stereo not shown) [Compound 7]	0.86
Clc1cc(Nc2nccc(-c3ccnc(NC4CCCCC4)c3)n2)ccn1 [Compound 8]	1.64
CC(C)C(C)Nc1cc(-c2ccnc(Nc3ccnc(Cl)c3)n2)ccn1 (stereo not shown) [Compound 10]	1.66
Clc1cc(Nc2nccc(-c3ccnc(NC4CCC4)c3)n2)ccn1 [Compound 11]	1.45
CCCC(C)Nc1cc(-c2ccnc(Nc3ccnc(Cl)c3)n2)ccn1 (stereo not shown) [Compound 12]	1.72
CCC(CC)Nc1cc(-c2ccnc(Nc3ccnc(Cl)c3)n2)ccn1 [Compound 13]	1.64
Clc1cc(Nc2nccc(-c3ccnc(NC4CCCC4)c3)n2)ccn1 [Compound 14]	1.58
c1cc(Nc2nccc(-c3ccnc(NC4CCCCC4)c3)n2)cc(NC2CCCCC2)n1 [Compound 15]	1.52
c1cc(NCC2CC2)nc(Nc2nccc(-c3ccnc(NCC4CC4)c3)n2)c1 [Compound 16]	0.96
CCCCCNc1cc(Nc2nccc(-c3ccnc(NCCCCC)c3)n2)ccn1 [Compound 17]	1.57
CC(C)C(C)Nc1cc(Nc2nccc(-c3ccnc(NC(C)C(C)C)c3)n2)ccn1 (stereo not shown) [Compound 18]	1.34
c1cc(Nc2nccc(-c3ccnc(NC4CCC4)c3)n2)cc(NC2CCC2)n1 [Compound 19]	1.05
CCCC(C)Nc1cc(Nc2nccc(-c3ccnc(NC(C)CCC)c3)n2)ccn1 (stereo not shown) [Compound 20]	1.43

Compound	log PHCOOH
CCC(CC)Nc1cc(Nc2nccc(-c3ccnc(NC(CC)CC)c3)n2)ccn1 [Compound 21]	1.33
c1cc(Nc2nccc(-c3ccnc(NC4CCCC4)c3)n2)cc(NC2CCCC2)n1 [Compound 22]	1.22
CCC(C)Nc1cc(Nc2nccc(-c3ccnc(NC(C)CC)c3)n2)ccn1 (stereo not shown) [Compound 23]	1.10
CCC(CC)Nc1cc(-c2ccnc(Nc3cccc(Cl)n3)n2)ccn1 [Compound 24]	2.09
CCC(C)Nc1cc(-c2ccnc(Nc3cccc(Cl)n3)n2)ccn1 (stereo not shown) [Compound 25]	2.00
CC(C)C(C)Nc1cc(-c2ccnc(Nc3cccc(Cl)n3)n2)ccn1 (stereo not shown) [Compound 26]	2.15
Clc1cccc(Nc2nccc(-c3ccnc(NCC4CCCO4)c3)n2)n1 (stereo not shown) [Compound 27]	1.64
CC(CN(C)C)Nc1cc(-c2ccnc(Nc3cccc(Cl)n3)n2)ccn1 (stereo not shown) [Compound 28]	1.42
CCC(COC)Nc1cc(-c2ccnc(Nc3cccc(Cl)n3)n2)ccn1 (stereo not shown) [Compound 29]	1.85
CCC(CC)Nc1cc(-c2ccnc(Nc3cccc(NC(CC)CC)n3)n2)ccn1 [Compound 30]	1.47
c1cc(Nc2nccc(-c3ccnc(NC4CCCC4)c3)n2)nc(NC2CCCC2)c1 [Compound 31]	1.23
CCC(C)Nc1cc(-c2ccnc(Nc3cccc(NC(C)CC)n3)n2)ccn1 (stereo not shown) [Compound 32]	1.23
CC(C)C(C)Nc1cc(-c2ccnc(Nc3cccc(NC(C)C(C)C)n3)n2)ccn1 (stereo not shown) [Compound 33]	1.43
CCC(COC)Nc1cc(Nc2nccc(-c3ccnc(NC(CC)COC)c3)n2)ccn1 (stereo not shown) [Compound 34]	1.10
COCC(C)Nc1cc(-c2ccnc(Nc3ccnc(Cl)c3)n2)ccn1 (stereo not shown) [Compound 35]	1.34
COc1ccc(Nc2nccc(-c3ccnc(NC4COC4)c3)n2)cn1 [Compound 36]	1.10
COCC(C)Nc1cc(-c2ccnc(Nc3ccc(OC)nc3)n2)ccn1 (stereo not shown) [Compound 38]	1.29
CCC(C)Nc1cc(-c2ccnc(Nc3ccc(OC)nc3)n2)ccn1 (stereo not shown) [Compound 39]	1.48
COc1ccc(Nc2nccc(-c3ccnc(NCC(C)C)c3)n2)cn1 [Compound 46]	1.42

Same assay, conditions: reversed-phase C18 HPLC column, reversed-phase C 18, 40° C., 0.1% aqueous formic acid and acetonitrile gradient, read-out: log PHCOOH

Compound	chromatographic logP
CCC(COC)Nc1cc(-c2ccnc(Nc3ccnc(Cl)c3)n2)ccn1 (stereo not shown) [Compound 9, N-(2-chloropyridin-4-yl)-4-(2-{[1-(methoxymethyl)propyl]amino}pyridin-4-yl)pyrimidin-2-amine]	1.37
